# Source: patent publication US20040072246A1, “System and method for identifying t cell and other epitopes and the like” (priority 2003, published 2004)
# Where no end group is shown, it is not given here.
# Experiments:
# Type in all cases: cell-based, human
# T-cell clone CSF-3 = experiment: Proliferative assay of T-cell clone CSF-3 (3H-thymidine incorporation); conditions: for EC50: peptide concentration inducing half-maximal proliferation, TCC CSF-3, Table 5; for Potency EC50: concentration inducing half-maximal proliferation; for Potency max. response / Potency % of Max. response / Potency % of max. response: percentage of highest proliferative response (100% = 28,255 c.p.m. for peptide 77)
# Procedure: (§1) The proliferation of TCC in response to PS-SCL or individual peptides was tested by seeding in duplicate 2×10^4 T cells, 5×10^4 irradiated PBMC with or without mixtures from PS-SCL or peptide. Proliferation was measured by [^3H]-thymidine incorporation (Hemmer B. et al., 2000, J Immunol 164:861).
# (§2) The proliferation of T-cell clones in response to PS-SCL or individual peptides was tested by seeding in duplicate 2×10^4 T-cells, 5×10^4 irradiated peripheral blood mononuclear cells with or without 200 μg/ml PS-SCL or peptide (Hemmer, B. et al. 1998, J Pept Res 52: 338-345). Proliferation was measured by ^3H-thymidine incorporation (Hemmer, B. et al. 1997, J Exp Med 185: 1651-1659). Experiments were repeated at least twice. HLA restriction was determined by using bare lymphocyte syndrome cells transfected with DR2a (DRB5*0101) or DR2b (DRB1*1501) (provided by G. Nepom, University of Washington, Seattle) (Kovats, S. et al. 1994, J Exp Med 179: 2017-2022). The proliferation of peripheral blood mononuclear cells was measured in an IL-7-modified 7-day primary proliferation assay. Peripheral blood mononuclear cells (1×10^5 per well; 10 wells each and 10 control wells per plate) were seeded with 10 ng/ml IL-7 and 15 μg/ml peptide. Then, 1 μCi ^3H-thymidine/well was added at day 7 for 12 h before radioactivity was measured. Wells were considered positive if the counts per minute exceeded the average background proliferation+3 s.d. (Reece J. C. et al., 1993, Immunol 151: 6175-6184).
# [1] = tested on: peripheral blood mononuclear cells; experiment: IL-7-modified 7-day primary proliferation assay of peripheral blood mononuclear cells; conditions: number of wells of 10 with positive primary proliferative response, 15 μg/ml peptide
# Procedure: as §2
# [2] = tested on: TCRζ-chain phosphoisoforms / ZAP-70 in CSF-3 cells; experiment: T-cell-receptor signaling (tyrosine phosphorylation of TCR subunits, ZAP-70 immunoprecipitation); conditions: CSF-3 cells stimulated 5 or 10 min
# Procedure: T-cells (1×10^6) were added to peptide-pulsed bare lymphocyte syndrome cells (2×10^6) and, after centrifugation (10 s at 300 g), were incubated at 37° C., washed once with PBS and incubated for 25 min on ice in lysis buffer (1% Nonidet-P40, 10 mM Tris-HCl, pH 7.2, 140 mM NaCl, 2 mM EDTA, 5 mM iodoacetamide, 1 mM Na3VO4 and complete protease inhibitor ‘cocktail’; Boehringer). After nuclear debris were removed, proteins in lysate supernatants were immunoprecipitated by incubation at 4° C. for 12 h with rabbit antibody against ZAP-70 (provided by L. Samelson, National Institute of Child Health and Human Development, National Institutes of Health). Proteins were separated by SDS-PAGE and immunoblotted with 4G10, a mouse monoclonal antibody against phosphotyrosine (Upstate Biotechnology, Lake Placid, N.Y.).
# TCC GP5F11 = experiment: Proliferative assay of TCC GP5F11 (3H-thymidine incorporation); conditions: FIG. 4; result in words
# Procedure: as §1
# [3] = human autoantigenic mimics, Table 9
# [4] = background 1,306 ± 582 c.p.m., Table 9
# [5] = B. burgdorferi peptides, Table 8
# [6] = background 2,899 ± 1,417 c.p.m., Table 8
# [7] = background 2,899 ± 1,417 c.p.m., Table 10
Substance,EC50 (T-cell clone CSF-3),Potency EC50 (T-cell clone CSF-3; [5]),Potency % of Max. response (T-cell clone CSF-3; Table 8),"PB PP [1, 6]",further results
"DNIFKKETLI [D N I F K K E T L I, DNIFKKETLI]",1 µg/mL,–,–,–,–
"DNITSSVLFN [Peptide 71, DNITSSVLFN]",–,–,–,–,"Potency EC50 (T-cell clone CSF-3; [3]): 0.1 to 1 µg/mL; Potency max. response (T-cell clone CSF-3; Table 9): 60.6%; PB PP [1, 4]: 5; effect on early TCR signaling events (TCRζ-chain p38 phospho-isoforms, recruitment of active ZAP-70) [2]: fall agonist response"
"ENIKKILLRE [Peptide 46, ENIKKILLRE]",–,0.1 to 1 µg/mL,65.1%,3,–
"ENIYYSSVRT [Peptide 77, ENIYYSSVRT]",–,–,–,–,"Potency EC50 (T-cell clone CSF-3; viral mimic peptides, Table 10): 1 to 10 µg/mL; Potency % of max. response (T-cell clone CSF-3; Table 10): 100%; PB PP [1, 7]: 3"
"ENVKKSRRLI [Peptide 66, ENVKKSRRLI]",–,–,–,–,"Potency EC50 (T-cell clone CSF-3; [3]): 0.1 to 1 µg/mL; Potency max. response (T-cell clone CSF-3; Table 9): 64.1%; PB PP [1, 4]: 0"
"FFIKKRSLII [Peptide 54, FFIKKRSLII]",1 µg/mL,1 to 10 µg/mL,59.8%,5,–
"FNIIKSLLGG [52′, FNIIKSLLGG]",–,–,–,–,"Potency EC50 (T-cell clone CSF-3; viral mimic peptides, Table 10): 1 to 10 µg/mL; stimulation (proliferation) of T-cell clone CSF-3 (T-cell clone CSF-3; result in words): stimulatory"
"FNIIKVHSSL [Peptide 37, FNIIKVHSSL]",–,0.001 to 0.01 µg/mL,69.3%,1,–
"FNITSSIRNK [Peptide 75, FNITSSIRNK]",–,–,–,–,"Potency EC50 (T-cell clone CSF-3; viral mimic peptides, Table 10): 1 µg/mL; Potency % of max. response (T-cell clone CSF-3; Table 10): 63.5%; PB PP [1, 7]: 1"
"FNITSSTCEL [Peptide 64, FNITSSTCEL]",–,–,–,–,"Potency EC50 (T-cell clone CSF-3; [3]): 0.1 to 1 µg/mL; Potency max. response (T-cell clone CSF-3; Table 9): 66.3%; PB PP [1, 4]: 1"
"FNIYKRVVDN [F N I Y K R V V D N, FNIYKRVVDN]",1 µg/mL,–,–,–,–
"GHIKKKRVEA [Peptide 63, GHIKKKRVEA]",–,–,–,–,"Potency EC50 (T-cell clone CSF-3; [3]): 1 to 10 µg/mL; Potency max. response (T-cell clone CSF-3; Table 9): 56.5%; PB PP [1, 4]: 0"
"LHIISKRVEA [Peptide 61, LHIISKRVEA]",–,–,–,–,"Potency EC50 (T-cell clone CSF-3; [3]): 0.1 to 1 µg/mL; Potency max. response (T-cell clone CSF-3; Table 9): 70.0%; PB PP [1, 4]: 0"
"LNIKNSKLEI [Peptide 30, LNIKNSKLEI]",–,<0.001 µg/mL,64.2%,0,–
"LNITSSSYLF [Peptide 42, LNITSSSYLF]",–,1 to 10 µg/mL,71.4%,0,–
"NNIDKKVYTN [N N I D K K V Y T N, NNIDKKVYTN]",1 to 10 µg/mL,–,–,–,–

Substance,EC50 (T-cell clone CSF-3),Potency EC50 (T-cell clone CSF-3; [5]),Potency % of Max. response (T-cell clone CSF-3; Table 8),"PB PP [1, 6]",further results
"NNIKSKVDNA [Peptide 47, NNIKSKVDNA]",–,1 to 10 µg/mL,80.6%,0,–
"NNIYKKALIS [Peptide 59, NNIYKKALIS]",1 µg/mL,0.1 to 1 µg/mL,68.1%,3,"effect on early TCR signaling events (TCRζ-chain p38 phospho-isoforms, recruitment of active ZAP-70) [2]: fall agonist response"
"PIP5 KIII246-255: low-scoring peptide derived from H. sapiens phosphatidylinositol-4-phosphate 5-kinase type III (LDPSEPRTPV; UniProt Q9Y2I7 246-255, looked up, fragment)",–,–,–,–,proliferative response of TCC GP5F11 (potency) (TCC GP5F11): non-stimulatory
"PNITFSVVYN [Peptide 74, PNITFSVVYN]",–,–,–,–,"Potency EC50 (T-cell clone CSF-3; viral mimic peptides, Table 10): 0.1 to 1 µg/mL; Potency % of max. response (T-cell clone CSF-3; Table 10): 78.3%; PB PP [1, 7]: 0"
"QAIGKKTQNN [Peptide 26, QAIGKKTQNN]",–,<0.001 µg/mL,80.8%,3,–
"RNIFKKTVEN [R N I F K K T V E N, RNIFKKTVEN]",>100 µg/mL,–,–,–,–
"SFIYSVVCLV [Peptide 62, SFIYSVVCLV]",–,–,–,–,"Potency EC50 (T-cell clone CSF-3; [3]): 0.1 to 1 µg/mL; Potency max. response (T-cell clone CSF-3; Table 9): 75.7%; PB PP [1, 4]: 9"
"SNIIKKTSED [Peptide 57, SNIIKKTSED]",1 µg/mL,0.1 to 1 µg/mL,65.2%,4,–
"SNIIKSLSLF [S N I I K S L S L F, SNIIKSLSLF]",0.1 to 1 µg/mL,–,–,–,–
"SNIKSKLILV [S N I K S K L I L V, SNIKSKLILV]",1 µg/mL,–,–,–,–
"TLITKKISAI [Peptide 28, TLITKKISAI]",–,<0.001 µg/mL,65.9%,1,–
WMKQNIGRFL [predicted stimulatory peptide with optimal amino acids in each position for TCC GP5F11],–,–,–,–,proliferative response of TCC GP5F11 (potency) (TCC GP5F11): two orders of magnitude more potent than the target sequence
"YNIIVSSLLL [Y N I I V S S L L L, YNIIVSSLLL]",1 to 10 µg/mL,–,–,–,–
"YNIKKIKVED [Peptide 38, YNIKKIKVED]",–,0.1 to 1 µg/mL,62.7%,1,–
"YVKQNTLKLA (listed as Influenza virus) [Flu-HA308-317, influenza virus hemagglutinin decamer, target peptide of TCC GP5F11, reference compound]",–,–,–,–,proliferative response of TCC GP5F11 (potency) (TCC GP5F11): intermediate potency
